Assay results taken from PubChem BioAssay (NCI).
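Briefly, cells in 96-well plates were exposed to five compound concentrations for 48 h, and endpoints were estimated by linear interpolation. Here, GI50 denotes the concentration required for 50% inhibition of growth. TGI: total growth inhibition.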

Assays:
Experiment in all cases: NCI tumour cell line growth inhibition, 48 h
HCC-2998 colon = test system: HCC-2998 colon
T-47D breast = test system: T-47D breast
DU-145 prostate = test system: DU-145 prostate
CCRF-CEM leukemia = test system: CCRF-CEM leukemia
A498 renal = test system: A498 renal
UACC-62 melanoma = test system: UACC-62 melanoma
OVCAR-3 ovarian = test system: OVCAR-3 ovarian
IGROV1 ovarian = test system: IGROV1 ovarian
NCI-H226 lung = test system: NCI-H226 lung
SK-MEL-5 melanoma = test system: SK-MEL-5 melanoma
HT29 colon = test system: HT29 colon
SN12C renal = test system: SN12C renal
SK-MEL-28 melanoma = test system: SK-MEL-28 melanoma
SNB-19 CNS = test system: SNB-19 CNS
BT-549 breast = test system: BT-549 breast
SNB-75 CNS = test system: SNB-75 CNS
OVCAR-8 ovarian = test system: OVCAR-8 ovarian
HL-60(TB) leukemia = test system: HL-60(TB) leukemia
NCI-H460 lung = test system: NCI-H460 lung
KM12 colon = test system: KM12 colon
MDA-MB-435 = test system: MDA-MB-435
HS 578T breast = test system: HS 578T breast
HOP-92 NSCLC = test system: HOP-92 NSCLC
MCF7 breast = test system: MCF7 breast
LOX IMVI melanoma = test system: LOX IMVI melanoma
SK-OV-3 ovarian = test system: SK-OV-3 ovarian
SK-MEL-2 melanoma = test system: SK-MEL-2 melanoma
NCI/ADR-RES ovarian = test system: NCI/ADR-RES ovarian
SW-620 colon = test system: SW-620 colon
ACHN renal = test system: ACHN renal
MDA-MB-231 breast = test system: MDA-MB-231 breast
UO-31 renal = test system: UO-31 renal
OVCAR-4 ovarian = test system: OVCAR-4 ovarian
HOP-62 NSCLC = test system: HOP-62 NSCLC
K-562 leukemia = test system: K-562 leukemia
SF-539 CNS = test system: SF-539 CNS
MOLT-4 leukemia = test system: MOLT-4 leukemia
SR leukemia = test system: SR leukemia
NCI-H23 lung = test system: NCI-H23 lung
TK-10 renal = test system: TK-10 renal
RPMI-8226 leukemia = test system: RPMI-8226 leukemia
UACC-257 melanoma = test system: UACC-257 melanoma
MALME-3M melanoma = test system: MALME-3M melanoma
U251 CNS = test system: U251 CNS
CAKI-1 renal = test system: CAKI-1 renal
A549 NSCLC = test system: A549 NSCLC
SF-295 CNS = test system: SF-295 CNS
SF-268 CNS = test system: SF-268 CNS
COLO 205 colon = test system: COLO 205 colon
786-0 renal = test system: 786-0 renal
HCT-15 colon = test system: HCT-15 colon
PC-3 prostate = test system: PC-3 prostate
RXF 393 renal = test system: RXF 393 renal
OVCAR-5 ovarian = test system: OVCAR-5 ovarian
NCI-H522 lung = test system: NCI-H522 lung
EKVX NSCLC = test system: EKVX NSCLC
HCT-116 colon = test system: HCT-116 colon
M14 melanoma = test system: M14 melanoma

## Cc1ccc(C(=O)N(CCCN)C(c2oc3cc(Cl)ccc3c(=O)c2Cc2ccccc2)C(C)C)cc1 (stereo not given)
HCC-2998 colon
  GI50: < 10 nM
  TGI: 1580 nM
T-47D breast
  GI50: < 0.01 µM
  TGI: 2.02 µM
DU-145 prostate
  GI50: < 0.01 µM
CCRF-CEM leukemia
  GI50: < 10 nM
  TGI: 1.7 µM
A498 renal
  GI50: < 0.01 µM
UACC-62 melanoma
  GI50: < 10 nM
  TGI: 2.3 µM
OVCAR-3 ovarian
  GI50: < 0.01 µM
  TGI: 1.14 µM
IGROV1 ovarian
  TGI: 2.72 µM
NCI-H226 lung
  GI50: 1470 nM
  TGI: 3.23 µM
SK-MEL-5 melanoma
  GI50: < 10 nM
  TGI: 1680 nM
HT29 colon
  GI50: < 10 nM
  TGI: 0.437 µM
SN12C renal
  GI50: < 0.01 µM
  TGI: 2.07 µM
SK-MEL-28 melanoma
  GI50: 1070 nM
  TGI: 2.5 µM
SNB-19 CNS
  GI50: 1020 nM
  TGI: 2.41 µM
BT-549 breast
  GI50: < 10 nM
  TGI: 2.03 µM
SNB-75 CNS
  GI50: < 0.01 µM
  TGI: 1.46 µM
OVCAR-8 ovarian
  GI50: < 0.01 µM
  TGI: 1.79 µM
HL-60(TB) leukemia
  GI50: < 10 nM
  TGI: 126 nM
NCI-H460 lung
  GI50: < 0.01 µM
  TGI: 1.15 µM
KM12 colon
  GI50: < 10 nM
  TGI: 1470 nM
MDA-MB-435
  GI50: < 10 nM
  TGI: < 0.01 µM
HS 578T breast
  GI50: < 0.01 µM
  TGI: 1.46 µM
HOP-92 NSCLC
  GI50: < 0.01 µM
  TGI: 1.76 µM
MCF7 breast
  GI50: < 10 nM
  TGI: 1.39 µM
LOX IMVI melanoma
  GI50: < 40.2 nM
  TGI: 1980 nM
SK-OV-3 ovarian
  GI50: < 0.01 µM
  TGI: 1.57 µM
SK-MEL-2 melanoma
  GI50: < 0.01 µM
NCI/ADR-RES ovarian
  GI50: 110 nM
  TGI: 1.17 µM
SW-620 colon
  GI50: < 10 nM
  TGI: 1.45 µM
ACHN renal
  GI50: 1070 nM
  TGI: 2.39 µM
MDA-MB-231 breast
  GI50: < 0.01 µM
UO-31 renal
  GI50: 670 nM
  TGI: 2460 nM
OVCAR-4 ovarian
  GI50: 899 nM
  TGI: 2.47 µM
HOP-62 NSCLC
  GI50: < 0.01 µM
  TGI: 1.85 µM
K-562 leukemia
  GI50: < 10 nM
  TGI: 1.41 µM
SF-539 CNS
  GI50: < 0.01 µM
MOLT-4 leukemia
  GI50: < 10 nM
  TGI: 2.94 µM
SR leukemia
  GI50: < 10 nM
  TGI: 1860 nM
NCI-H23 lung
  GI50: < 10 nM
  TGI: 1.61 µM
TK-10 renal
  GI50: 1.11 µM
  TGI: 2.37 µM
RPMI-8226 leukemia
  GI50: < 10 nM
  TGI: 1.46 µM
UACC-257 melanoma
  GI50: < 0.01 µM
  TGI: 1.97 µM
MALME-3M melanoma
  GI50: 1300 nM
  TGI: 3.09 µM
U251 CNS
  GI50: < 0.01 µM
  TGI: 1.37 µM
CAKI-1 renal
  GI50: 49.2 nM
  TGI: 1.94 µM
A549 NSCLC
  GI50: < 0.01 µM
  TGI: 1.54 µM
SF-295 CNS
  GI50: < 10 nM
  TGI: 1.48 µM
SF-268 CNS
  GI50: < 0.01 µM
  TGI: 1.69 µM
COLO 205 colon
  GI50: < 10 nM
  TGI: 595 nM
786-0 renal
  GI50: < 0.01 µM
  TGI: 2.11 µM
HCT-15 colon
  GI50: < 10 nM
  TGI: 1.57 µM
PC-3 prostate
  GI50: < 0.01 µM
  TGI: 2.03 µM
RXF 393 renal
  GI50: < 10 nM
  TGI: 1480 nM
OVCAR-5 ovarian
  GI50: < 0.01 µM
  TGI: 1.78 µM
NCI-H522 lung
  GI50: < 10 nM
  TGI: < 0.01 µM

## CC/C=C\C[C@@H](O)C/C=C1/C(=O)C=C[C@H]1C/C=C\CCCC(=O)OC
HCC-2998 colon
  GI50: 2100 nM
  TGI: 3610 nM
T-47D breast
  GI50: 4.05 µM
  TGI: 19 µM
EKVX NSCLC
  GI50: 9.14 µM
  TGI: 21.1 µM
DU-145 prostate
  GI50: 3.33 µM
  TGI: 12.3 µM
CCRF-CEM leukemia
  GI50: 461 nM
  TGI: 4.36 µM
A498 renal
  GI50: 14.6 µM
  TGI: 28.1 µM
UACC-62 melanoma
  GI50: 2800 nM
  TGI: 8.6 µM
OVCAR-3 ovarian
  GI50: 3.1 µM
  TGI: 10.3 µM
IGROV1 ovarian
  GI50: 3.31 µM
  TGI: 12.6 µM
NCI-H226 lung
  GI50: 2140 nM
  TGI: 5.04 µM
SK-MEL-5 melanoma
  GI50: 1770 nM
  TGI: 3250 nM
HT29 colon
  GI50: 2360 nM
  TGI: 5.74 µM
HCT-116 colon
  GI50: 498 nM
  TGI: 2530 nM
SN12C renal
  GI50: 4.64 µM
  TGI: 19.3 µM
SK-MEL-28 melanoma
  GI50: 2100 nM
  TGI: 5.34 µM
SNB-19 CNS
  GI50: 4620 nM
  TGI: 19.4 µM
BT-549 breast
  GI50: 2940 nM
  TGI: 8.81 µM
SNB-75 CNS
  GI50: 6.17 µM
  TGI: 19.6 µM
OVCAR-8 ovarian
  GI50: 3.26 µM
  TGI: 10.4 µM
HL-60(TB) leukemia
  GI50: 1960 nM
  TGI: 5480 nM
NCI-H460 lung
  GI50: 3.45 µM
  TGI: 11.8 µM
KM12 colon
  GI50: 1650 nM
  TGI: 3840 nM
MDA-MB-435
  GI50: 1930 nM
  TGI: 5.86 µM
HS 578T breast
  GI50: 4.06 µM
  TGI: 26.2 µM
HOP-92 NSCLC
  GI50: 4.54 µM
  TGI: 15.2 µM
MCF7 breast
  GI50: 2230 nM
  TGI: 13.1 µM
LOX IMVI melanoma
  GI50: 329 nM
  TGI: 1510 nM
M14 melanoma
  GI50: 2390 nM
  TGI: 8.38 µM
SK-OV-3 ovarian
  GI50: 6.49 µM
  TGI: 19 µM
SK-MEL-2 melanoma
  GI50: 6.99 µM
  TGI: 21.6 µM
NCI/ADR-RES ovarian
  GI50: 3380 nM
  TGI: 19.7 µM
SW-620 colon
  GI50: 2840 nM
  TGI: 8.6 µM
ACHN renal
  GI50: 1970 nM
  TGI: 4.02 µM
MDA-MB-231 breast
  GI50: 6.06 µM
  TGI: 20.5 µM
UO-31 renal
  GI50: 1730 nM
  TGI: 3340 nM
OVCAR-4 ovarian
  GI50: 4210 nM
  TGI: 16.9 µM
HOP-62 NSCLC
  GI50: 3.31 µM
  TGI: 9.8 µM
K-562 leukemia
  GI50: 987 nM
  TGI: 10.1 µM
SF-539 CNS
  GI50: 3.22 µM
  TGI: 11.9 µM
MOLT-4 leukemia
  GI50: 2060 nM
  TGI: 5.83 µM
SR leukemia
  GI50: 686 nM
  TGI: 4000 nM
NCI-H23 lung
  GI50: 2400 nM
  TGI: 6.63 µM
TK-10 renal
  GI50: 11.6 µM
  TGI: 24 µM
RPMI-8226 leukemia
  GI50: 1830 nM
  TGI: 7.4 µM
UACC-257 melanoma
  GI50: 3.38 µM
  TGI: 8.36 µM
MALME-3M melanoma
  GI50: 2870 nM
  TGI: 9.3 µM
U251 CNS
  GI50: 3.18 µM
  TGI: 10.5 µM
CAKI-1 renal
  GI50: 3570 nM
  TGI: 13.5 µM
A549 NSCLC
  GI50: 3.75 µM
  TGI: 10.7 µM
SF-295 CNS
  GI50: 2970 nM
  TGI: 9.27 µM
SF-268 CNS
  GI50: 3.92 µM
  TGI: 15.3 µM
COLO 205 colon
  GI50: 1800 nM
  TGI: 4660 nM
786-0 renal
  GI50: 3.29 µM
  TGI: 11.5 µM
HCT-15 colon
  GI50: 2490 nM
  TGI: 7.47 µM
PC-3 prostate
  GI50: 3.2 µM
  TGI: 10.8 µM
RXF 393 renal
  GI50: 1850 nM
  TGI: 3550 nM
OVCAR-5 ovarian
  GI50: 3.35 µM
  TGI: 12.1 µM
NCI-H522 lung
  GI50: 1650 nM
  TGI: 3.97 µM
